These results are taken from ChEMBL document CHEMBL5696443 (Clin Cancer Res, 2016).

The structures appear in SMILES notation. Active and inactive are the calls of the source. The calls are words filed in the database; no cut-off is given here.

Data set [1] addresses Protein-tyrosine kinase 2-beta (Homo sapiens, UniProt Q14289). In words: Inhibition of human PTK2B using poly (Glu, Tyr)4:1 as substrate in presence of [gamma33P]-ATP by HotSpot assay.
Data set [2] has as its target Ribosomal protein S6 kinase alpha-1 (Homo sapiens, UniProt Q15418). The data set can be described thus: Inhibition of human RPS6KA1 using KKLNRTLSVA as substrate in presence of [gamma33P]-ATP by HotSpot assay.
The target of data set [3] is Macrophage colony-stimulating factor 1 receptor (Homo sapiens, UniProt P07333). In words: Inhibition of human FMS using poly (Glu, Tyr)4:1 as substrate in presence of [gamma33P]-ATP by HotSpot assay.
Macrophage colony-stimulating factor 1 receptor, sequence (P07333 whole entry): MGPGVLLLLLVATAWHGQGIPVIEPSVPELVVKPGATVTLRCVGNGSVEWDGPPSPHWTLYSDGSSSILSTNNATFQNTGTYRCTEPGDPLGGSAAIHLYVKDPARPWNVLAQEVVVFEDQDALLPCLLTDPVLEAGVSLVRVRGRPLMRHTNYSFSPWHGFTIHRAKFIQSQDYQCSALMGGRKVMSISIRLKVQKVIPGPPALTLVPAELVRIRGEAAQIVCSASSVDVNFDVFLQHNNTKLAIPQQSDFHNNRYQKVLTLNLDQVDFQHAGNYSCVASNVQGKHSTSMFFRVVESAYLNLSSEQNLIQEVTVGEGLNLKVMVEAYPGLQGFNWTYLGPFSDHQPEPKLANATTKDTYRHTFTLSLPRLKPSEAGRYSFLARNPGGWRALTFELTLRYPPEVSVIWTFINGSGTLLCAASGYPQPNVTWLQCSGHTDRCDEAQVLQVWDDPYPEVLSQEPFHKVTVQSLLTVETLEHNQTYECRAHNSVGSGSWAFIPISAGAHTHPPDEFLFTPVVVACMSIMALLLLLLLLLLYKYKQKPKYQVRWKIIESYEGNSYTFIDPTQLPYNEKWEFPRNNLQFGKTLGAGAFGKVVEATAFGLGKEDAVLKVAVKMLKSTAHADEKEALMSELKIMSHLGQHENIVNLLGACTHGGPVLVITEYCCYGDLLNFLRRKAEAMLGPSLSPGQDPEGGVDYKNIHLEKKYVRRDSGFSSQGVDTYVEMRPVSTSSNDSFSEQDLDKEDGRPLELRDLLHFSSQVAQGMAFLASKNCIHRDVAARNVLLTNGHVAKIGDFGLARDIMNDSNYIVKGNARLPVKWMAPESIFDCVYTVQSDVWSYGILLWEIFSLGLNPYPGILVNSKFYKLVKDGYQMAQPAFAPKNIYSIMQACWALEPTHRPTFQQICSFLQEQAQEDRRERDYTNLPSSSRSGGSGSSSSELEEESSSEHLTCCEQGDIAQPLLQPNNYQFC
Data set [4] concerns the target Tyrosine-protein kinase Lck (Homo sapiens, UniProt P06239). The data set can be described thus: Inhibition of human LCK using poly (Glu, Tyr)4:1 as substrate in presence of [gamma33P]-ATP by HotSpot assay.
Data set [5] deals with Receptor tyrosine-protein kinase erbB-2 (Homo sapiens, UniProt P04626). In words: Inhibition of human ERBB2 at 1 uM using poly (Glu, Tyr)4:1 as substrate in presence of [gamma33P]-ATP by HotSpot assay relative to control.
Receptor tyrosine-protein kinase erbB-2, sequence (P04626 whole entry): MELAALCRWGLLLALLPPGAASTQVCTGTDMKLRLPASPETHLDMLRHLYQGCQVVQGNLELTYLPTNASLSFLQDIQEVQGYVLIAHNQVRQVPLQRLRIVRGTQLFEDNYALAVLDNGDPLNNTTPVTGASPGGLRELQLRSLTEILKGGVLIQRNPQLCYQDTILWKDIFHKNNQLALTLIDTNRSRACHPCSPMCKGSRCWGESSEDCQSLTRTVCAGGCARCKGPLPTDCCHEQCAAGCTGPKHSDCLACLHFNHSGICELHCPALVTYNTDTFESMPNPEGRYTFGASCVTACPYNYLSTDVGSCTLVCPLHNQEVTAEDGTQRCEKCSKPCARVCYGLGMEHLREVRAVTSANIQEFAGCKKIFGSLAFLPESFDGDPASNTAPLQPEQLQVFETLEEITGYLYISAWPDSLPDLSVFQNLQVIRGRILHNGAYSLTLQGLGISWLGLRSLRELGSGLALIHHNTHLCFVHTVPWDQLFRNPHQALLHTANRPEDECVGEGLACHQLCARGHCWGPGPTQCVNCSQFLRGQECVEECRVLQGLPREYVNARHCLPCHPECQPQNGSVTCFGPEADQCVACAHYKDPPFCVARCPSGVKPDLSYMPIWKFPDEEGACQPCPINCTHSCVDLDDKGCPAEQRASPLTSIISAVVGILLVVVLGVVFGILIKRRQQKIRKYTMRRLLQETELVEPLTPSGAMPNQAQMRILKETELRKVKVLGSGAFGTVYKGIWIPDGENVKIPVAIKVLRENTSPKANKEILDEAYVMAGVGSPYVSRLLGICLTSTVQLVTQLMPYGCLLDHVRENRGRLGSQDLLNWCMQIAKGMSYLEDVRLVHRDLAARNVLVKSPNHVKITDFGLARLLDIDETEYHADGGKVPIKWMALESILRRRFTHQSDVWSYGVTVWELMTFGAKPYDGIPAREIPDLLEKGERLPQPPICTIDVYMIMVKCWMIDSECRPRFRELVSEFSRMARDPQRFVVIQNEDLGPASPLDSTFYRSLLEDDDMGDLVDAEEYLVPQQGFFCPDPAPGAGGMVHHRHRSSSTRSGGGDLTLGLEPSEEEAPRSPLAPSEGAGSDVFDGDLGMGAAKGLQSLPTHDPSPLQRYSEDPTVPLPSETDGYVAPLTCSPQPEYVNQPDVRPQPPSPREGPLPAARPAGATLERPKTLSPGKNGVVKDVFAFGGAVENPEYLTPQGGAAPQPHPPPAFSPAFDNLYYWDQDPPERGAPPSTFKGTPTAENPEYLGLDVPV
In data set [6] the target is Homeodomain-interacting protein kinase 3 (Homo sapiens) (UniProt Q9H422). In words: Inhibition of human HIPK3 at 1 uM using MBP as substrate in presence of [gamma33P]-ATP by HotSpot assay relative to control.
Homeodomain-interacting protein kinase 3 (Homo sapiens), sequence (Q9H422 whole entry, looked up): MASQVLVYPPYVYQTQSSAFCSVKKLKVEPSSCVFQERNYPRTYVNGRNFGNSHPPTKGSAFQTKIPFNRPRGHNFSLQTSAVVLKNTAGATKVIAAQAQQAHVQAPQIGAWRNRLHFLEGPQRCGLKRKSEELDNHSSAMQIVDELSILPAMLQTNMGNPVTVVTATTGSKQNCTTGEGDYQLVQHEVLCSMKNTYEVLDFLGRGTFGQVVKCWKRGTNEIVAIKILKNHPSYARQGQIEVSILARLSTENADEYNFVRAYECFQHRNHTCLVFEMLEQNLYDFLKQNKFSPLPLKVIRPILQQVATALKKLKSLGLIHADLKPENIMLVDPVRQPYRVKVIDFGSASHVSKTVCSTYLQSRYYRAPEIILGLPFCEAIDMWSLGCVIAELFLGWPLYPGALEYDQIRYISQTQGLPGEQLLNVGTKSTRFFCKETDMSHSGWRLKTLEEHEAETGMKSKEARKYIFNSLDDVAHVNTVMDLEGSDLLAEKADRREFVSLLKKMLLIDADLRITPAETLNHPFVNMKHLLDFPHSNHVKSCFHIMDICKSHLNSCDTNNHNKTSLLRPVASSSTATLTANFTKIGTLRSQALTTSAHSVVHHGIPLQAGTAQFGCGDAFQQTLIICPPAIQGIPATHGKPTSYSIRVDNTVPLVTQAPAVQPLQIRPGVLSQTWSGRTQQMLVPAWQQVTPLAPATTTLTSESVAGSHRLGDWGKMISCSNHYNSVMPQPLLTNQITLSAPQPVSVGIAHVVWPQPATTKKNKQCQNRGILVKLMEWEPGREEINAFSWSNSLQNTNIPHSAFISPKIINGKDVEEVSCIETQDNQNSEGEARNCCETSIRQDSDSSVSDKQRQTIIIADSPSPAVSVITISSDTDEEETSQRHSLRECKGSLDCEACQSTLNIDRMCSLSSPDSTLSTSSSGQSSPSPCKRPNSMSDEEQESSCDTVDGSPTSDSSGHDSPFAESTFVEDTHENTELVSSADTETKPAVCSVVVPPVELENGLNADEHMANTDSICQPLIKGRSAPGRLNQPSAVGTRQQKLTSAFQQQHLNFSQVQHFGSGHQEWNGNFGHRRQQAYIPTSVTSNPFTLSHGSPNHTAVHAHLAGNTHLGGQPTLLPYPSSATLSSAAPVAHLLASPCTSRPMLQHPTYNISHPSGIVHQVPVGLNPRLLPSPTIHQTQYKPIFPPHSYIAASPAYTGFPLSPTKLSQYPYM
The target in data set [7] is Misshapen-like kinase 1 (Homo sapiens) (UniProt Q8N4C8). In words: Inhibition of human MINK1 at 1 uM using MBP as substrate in presence of [gamma33P]-ATP by HotSpot assay relative to control.
Data set [8] concerns the target Macrophage-stimulating protein receptor (Homo sapiens) (UniProt Q04912). In words: Inhibition of human MST1R at 1 uM using KKSRGDYMTMQIG as substrate in presence of [gamma33P]-ATP by HotSpot assay relative to control.
Data set [9] concerns the target Muscle, skeletal receptor tyrosine-protein kinase (Homo sapiens) (UniProt O15146). In words: Inhibition of human MUSK at 1 uM using MBP as substrate in presence of [gamma33P]-ATP by HotSpot assay relative to control.
Data set [10] has as its target cGMP-dependent protein kinase 2 (Homo sapiens) (UniProt Q13237). In words: Inhibition of human PRKG2 at 1 uM using LRRASLG as substrate in presence of [gamma33P]-ATP by HotSpot assay relative to control.
The nature of data set [11]: Average plasma concentration in CB-17/SCID mouse at 25 mg/kg administered once a day for 4 days by LC-MS/MS analysis. To be noted: in vivo, 96 h, time 4 day. The format is ADME, organism-based.
A further data set has as its system NCI-H2228. The data set can be described thus: Antitumor activity against ALK positive human NCI-H2228 cells xenografted in CB-17/SCID orthotopic brain tumor mouse model assessed as reduction in tumor burden in brain at 50 mg/kg, po administered daily and measured after 64 days by H&E staining based analysis. The data set is classed as functional, organism-based. Particulars: time 64.0 day.

The next data set has as its system U-937. To be noted: time 72 hrs.
The subject of the next data set is NCI-H3122. To be noted: time 72 hrs.
In data set [12] the test system is EML4-ALK (Homo sapiens), Q9UM73+Q9HC35 [S1206Y]. To be noted: BaF3, dose 500.0 nmol/L, time 3-5 weeks.
Data set [13] relates to EML4-ALK (Homo sapiens), Q9UM73+Q9HC35 [F1174V]. Particulars: BaF3, dose 500.0 nmol/L, time 3-5 weeks.

Tyrosine-protein kinase Lck, sequence (P06239 whole entry): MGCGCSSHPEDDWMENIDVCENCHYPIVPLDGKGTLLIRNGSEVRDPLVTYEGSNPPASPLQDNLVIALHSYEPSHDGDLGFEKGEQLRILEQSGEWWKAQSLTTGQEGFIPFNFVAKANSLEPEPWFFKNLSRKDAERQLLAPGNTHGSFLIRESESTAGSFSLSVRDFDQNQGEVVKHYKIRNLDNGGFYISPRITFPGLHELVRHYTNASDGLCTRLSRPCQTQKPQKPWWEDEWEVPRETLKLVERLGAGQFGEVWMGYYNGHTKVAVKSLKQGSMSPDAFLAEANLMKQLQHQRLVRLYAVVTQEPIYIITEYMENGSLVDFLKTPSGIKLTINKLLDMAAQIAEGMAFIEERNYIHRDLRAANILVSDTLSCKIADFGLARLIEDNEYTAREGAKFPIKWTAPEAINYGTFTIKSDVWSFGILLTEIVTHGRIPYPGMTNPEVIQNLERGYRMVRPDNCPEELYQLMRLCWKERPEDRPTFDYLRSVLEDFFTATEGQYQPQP
Protein-tyrosine kinase 2-beta, sequence (Q14289 whole entry): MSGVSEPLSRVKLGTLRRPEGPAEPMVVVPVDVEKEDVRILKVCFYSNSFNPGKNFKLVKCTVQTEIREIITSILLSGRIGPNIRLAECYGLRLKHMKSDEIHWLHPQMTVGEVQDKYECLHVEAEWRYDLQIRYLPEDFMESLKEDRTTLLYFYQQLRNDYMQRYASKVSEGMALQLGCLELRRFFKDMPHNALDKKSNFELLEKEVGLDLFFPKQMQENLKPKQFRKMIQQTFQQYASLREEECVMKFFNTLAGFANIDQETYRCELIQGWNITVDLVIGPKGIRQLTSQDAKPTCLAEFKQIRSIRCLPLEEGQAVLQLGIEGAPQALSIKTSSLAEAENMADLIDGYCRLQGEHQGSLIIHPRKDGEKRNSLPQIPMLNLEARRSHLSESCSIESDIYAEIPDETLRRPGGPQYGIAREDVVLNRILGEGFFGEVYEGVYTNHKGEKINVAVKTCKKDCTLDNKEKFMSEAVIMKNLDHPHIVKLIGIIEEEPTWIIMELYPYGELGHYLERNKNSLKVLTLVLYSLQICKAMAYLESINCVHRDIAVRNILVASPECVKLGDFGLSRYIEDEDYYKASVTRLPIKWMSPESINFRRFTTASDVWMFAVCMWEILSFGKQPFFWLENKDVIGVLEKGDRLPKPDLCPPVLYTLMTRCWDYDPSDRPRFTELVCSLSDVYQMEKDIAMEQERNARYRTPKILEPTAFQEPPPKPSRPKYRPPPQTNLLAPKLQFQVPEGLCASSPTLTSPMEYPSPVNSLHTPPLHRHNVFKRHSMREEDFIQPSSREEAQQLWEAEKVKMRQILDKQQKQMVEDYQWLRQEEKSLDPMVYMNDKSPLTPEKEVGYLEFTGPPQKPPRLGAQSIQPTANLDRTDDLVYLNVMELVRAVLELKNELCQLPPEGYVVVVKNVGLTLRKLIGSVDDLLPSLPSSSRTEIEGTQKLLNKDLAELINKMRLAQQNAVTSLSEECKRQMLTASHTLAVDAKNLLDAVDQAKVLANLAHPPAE

One may read the IC50 as the concentration that gives 50% inhibition. The inhibition is the relative decrease from the control value, in per cent. One may read the GI50 as the concentration at which growth is held to half of that of the control. Low values mean more potent growth inhibition, high ones less potent growth inhibition. Take `COc1cc(N2CCC(N3CCN(C)CC3)CC2)ccc1Nc1ncc(Cl)c(Nc2ccccc2P(C)(C)=O)n1` [BRIGATINIB]: the IC50 is 24 nM in data set [1], 30 nM in data set [2], 358 nM in data set [3] and 512 nM in data set [4]. In addition, the inhibition in data set [5], in [6], in data set [7], in [8], in [9] and in [10] was below 90% in each case. Besides, the Cave in data set [11] is listed as 844 nM. Besides, the outcome in the data set on NCI-H2228 was Active. Also, the GI50 with U-937 was 2390 nM; in the data set on NCI-H3122 it was 4 nM. The inhibition result in [12] and in data set [13] was “Active” in each case.
